Experiments:
[1] = biological target: T1, androgen receptor (adenovirus AdEasy+rAR in L929 cells) (Rattus norvegicus, UniProt P15207); test: L929 Androgen Receptor Functional Assay, Adenovirus Transduction; type: cell-based; conditions: 3000 nM; for % Activity: L929 agonist testing; for % Inhibition: L929 antagonist testing with R1881
T1 construct: expressed in transfected cells
T1 sequence (P15207 1-902): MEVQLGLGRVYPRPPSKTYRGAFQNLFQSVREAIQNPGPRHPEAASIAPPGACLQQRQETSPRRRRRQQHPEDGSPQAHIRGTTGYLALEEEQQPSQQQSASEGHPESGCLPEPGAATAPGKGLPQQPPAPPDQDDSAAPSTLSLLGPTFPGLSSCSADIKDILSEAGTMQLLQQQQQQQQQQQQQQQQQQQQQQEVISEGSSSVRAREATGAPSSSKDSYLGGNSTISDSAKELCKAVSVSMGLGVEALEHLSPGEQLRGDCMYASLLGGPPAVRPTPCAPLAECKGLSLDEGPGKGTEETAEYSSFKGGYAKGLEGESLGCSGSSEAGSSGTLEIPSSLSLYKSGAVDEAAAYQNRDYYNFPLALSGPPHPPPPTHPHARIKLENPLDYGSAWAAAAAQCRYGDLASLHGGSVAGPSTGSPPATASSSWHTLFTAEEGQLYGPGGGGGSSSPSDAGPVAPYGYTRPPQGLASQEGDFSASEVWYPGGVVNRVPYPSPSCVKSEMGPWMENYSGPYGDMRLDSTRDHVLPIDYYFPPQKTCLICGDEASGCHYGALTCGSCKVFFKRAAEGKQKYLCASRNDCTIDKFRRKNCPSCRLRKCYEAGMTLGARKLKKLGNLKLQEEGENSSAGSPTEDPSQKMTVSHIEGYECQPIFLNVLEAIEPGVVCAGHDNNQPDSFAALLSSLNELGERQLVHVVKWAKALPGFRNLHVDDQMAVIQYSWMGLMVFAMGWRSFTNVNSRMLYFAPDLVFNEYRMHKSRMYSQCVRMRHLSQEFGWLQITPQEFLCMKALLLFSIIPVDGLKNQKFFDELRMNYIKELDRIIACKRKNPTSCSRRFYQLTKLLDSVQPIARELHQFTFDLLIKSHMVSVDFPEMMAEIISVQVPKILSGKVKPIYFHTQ
Procedure, shortened: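 L929 cells in phenol red-free, charcoal-stripped serum medium transduced with AdEasy+rAR (moi 1:500) and exposed 48 h at 37 °C to compound alone (agonist mode) or with R1881 (antagonist mode; 2.5 nM as the 2.5× dilution).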

[2] = tested on: testosterone-enhanced ventral prostate and seminal vesicle weights in castrated male Sprague Dawley rats; test: Ventral Prostate and Seminal Vesicle Weight In Vivo Assay; set-up: species or system rat; conditions: immature castrated rats; once daily for five days, usually orally at 40 mg/kg, with testosterone propionate 2 mg/kg s.c.
Procedure, shortened: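 Immature (~50 g) castrated Sprague Dawley rats dosed once daily for five days with compound (usually oral, 40 mg/kg, cyclodextrin or methylcellulose vehicle) plus testosterone propionate 2 mg/kg s.c. Wet ventral prostate and seminal vesicle weights taken on day six; activity judged by prostate weight or body-weight-adjusted % inhibition.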

Compound | % Activity [1] | active / inactive (inhibition of testosterone-enhanced prostate weight) [2] | % Inhibition [1]
CC(O)(C[S+]([O-])Cc1ccccc1)c1cc2cc([N+](=O)[O-])c(C(F)(F)F)cc2[nH]1 (mixture of isomers) [compound 161] | 2% | inactive | 
COc1ccc(SCC(C)(O)c2cc3cc(Cl)c(C(F)(F)F)cc3n2S(C)(=O)=O)cc1 (racemic) [compound 130] | −5% |  | 
CC(C)CSCC(C)(O)c1cc2cc([N+](=O)[O-])c(C(F)(F)F)cc2[nH]1 (racemic) [compound 170] | 2% | active | 67%
COc1ccc(S(=O)(=O)CC(C)(O)c2cc3cc(Cl)c(C(F)(F)F)cc3[nH]2)cc1 (racemic) [compound 129] | −5% | inactive | −8%
CSCCC(C)(O)c1cc2cc([N+](=O)[O-])c(C(F)(F)F)cc2[nH]1 (racemic) [compound 47] | 2% | inactive | 75%
